What all share (format): functional, cell-based
The subject of one assay is PANC-1. Briefly: Cytotoxicity against human PANC-1 cells assessed as inhibition of cell growth incubated for 72 hrs by SRB assay. The note with it: PANC-1, 72 h. (The SRB assay estimates cell density from bound dye.)
For the next assay, the system named is ASPC1. Briefly: Cytotoxicity against human ASPC1 cells assessed as inhibition of cell growth incubated for 72 hrs by SRB assay. As to conditions: ASPC1, 72 h.
For another assay, the system named is MDA-MB-231. Kind of assay: Cytotoxicity against human MDA-MB-231 cells assessed as inhibition of cell growth incubated for 72 hrs by SRB assay. The note with it: MDA-MB-231, 72 h.
A further assay relates to BXPC-3. Briefly: Cytotoxicity against human BXPC-3 cells assessed as inhibition of cell growth incubated for 72 hrs by SRB assay. The note with it: BXPC-3, 72 h.

Where a name gives a salt, the structure may show the parent alone.

Consider `C=C(CCCCCCCC(=O)OC[C@@]1(C)CCC[C@@]2(C)[C@H]1[C@H](OC(=O)c1ccc([N+](=O)[O-])cc1)C=C1C(=O)OC[C@@]12O)C(=O)O`, for which the IC50 – broadly, the concentration needed to halve the response being measured – was found to be 4.6 µM in the assay with PANC-1, 2.7 µM with ASPC1 and 11.7 µM in the assay with MDA-MB-231.
As for `COc1cccc2c1C(=O)c1c(O)c3c(c(O)c1C2=O)C[C@@](O)(C(=O)CO)C[C@@H]3O[C@H]1C[C@H](N)[C@H](O)[C@H](C)O1` [DOXORUBICIN HYDROCHLORIDE], the IC50 in the assay on PANC-1 was 0.9 µM; with ASPC1, 0.3 µM; in the assay on MDA-MB-231 it was 0.2 µM.
On to `Nc1ccn([C@@H]2O[C@H](CO)[C@@H](O)C2(F)F)c(=O)n1` [GEMCITABINE], for which the IC50 in the assay on PANC-1 amounted to 8.3 µM; in the assay on ASPC1, 7.5 µM; in the assay with BXPC-3 it was 0.04 µM.
Take `C=C(CCCCCCCC(=O)OC[C@@]1(C)CCC[C@]2(C)[C@H]3COC(=O)C3=C[C@@H](OC(=O)c3ccc([N+](=O)[O-])cc3)[C@@H]12)C(=O)O`: the IC50 in the assay with PANC-1, with ASPC1 and in the assay with MDA-MB-231 was greater than 30 µM in each case.
As for `C[C@]1(COC(=O)CCCCCCC/C=C/C(=O)O)CCC[C@]2(C)[C@H]3COC(=O)C3=C[C@@H](OC(=O)c3ccc([N+](=O)[O-])cc3)[C@@H]12`, the IC50 with PANC-1, with ASPC1 and in the assay with MDA-MB-231 was greater than 30 µM in each case.

Source of the values: ChEMBL document CHEMBL5120812, “Cytotoxic Nitrobenzoyl Sesquiterpenoids from an Antarctica Sponge-Derived Aspergillus insulicola” (J Nat Prod, 2022).
